Results: the supplement of paper PMC10307832

Assays:
Test in all cases: relative viability (nuclei count vs DMSO), 5 days (fraction); higher = more cells survive
Motesanib + OSI-027 = compound: CC1(C)CNc2cc(NC(=O)c3cccnc3NCc3ccncc3)ccc21 [Motesanib] + COc1cccc2cc(-c3nc([C@H]4CC[C@H](C(=O)O)CC4)n4ncnc(N)c34)[nH]c12 [OSI-027] (partner 0.5 µM)
Procedure, shortened: (§1)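 After 5 days of treatment, lung cancer cells in 1536-well plates were fixed and stained in a single step (final 0.05% Triton X-100, 1% formaldehyde, 1 ug/ml Hoechst) and their nuclei counted on 4× images. Treatment had been applied by pin tool the day after seeding as one drug alone or as a fixed anchor-drug dose with five library-drug doses (not always all listed) in √10 steps. Relative viability is the nuclei count of treated wells divided by that of vehicle wells, and values are medians of duplicate plates.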

[1] = compound: C[C@@]1(C(=O)Nc2ccc(F)nc2)CCCN1c1nc(Nc2cc(C3CC3)n[nH]2)c2cccn2n1 + CC1(C)CCC(c2ccc(Cl)cc2)=C(CN2CCN(c3ccc(C(=O)NS(=O)(=O)c4ccc(N[C@H](CCN5CCOCC5)CSc5ccccc5)c(S(=O)(=O)C(F)(F)F)c4)cc3)CC2)C1 [Navitoclax] (partner 0.5 µM)
Procedure, shortened: as §1

Motesanib + Vorinostat = compound: CC1(C)CNc2cc(NC(=O)c3cccnc3NCc3ccncc3)ccc21 [Motesanib] + O=C(CCCCCCC(=O)Nc1ccccc1)NO [Vorinostat] (partner 1 µM)
Procedure, shortened: as §1

[2] = compound: C[C@@]1(C(=O)Nc2ccc(F)nc2)CCCN1c1nc(Nc2cc(C3CC3)n[nH]2)c2cccn2n1 + C[C@]1(O)C[C@@H](c2nc(-c3ccc4ccc(-c5ccccc5)nc4c3)c3c(N)nccn32)C1 [Linsitinib] (partner 1 µM)
Procedure, shortened: as §1

Cell Line | relative viability (Motesanib + OSI-027; first compound 0.01 µM) | relative viability (Motesanib + OSI-027; first compound 0.03162 µM) | relative viability (Motesanib + OSI-027; first compound 0.1 µM) | relative viability (Motesanib + OSI-027; first compound 0.3162 µM) | relative viability (Motesanib + OSI-027; first compound 1 µM) | relative viability ([1]; first compound 0.04 µM) | relative viability ([1]; first compound 0.1265 µM) | relative viability ([1]; first compound 0.4 µM) | relative viability ([1]; first compound 1.265 µM) | relative viability (Motesanib + Vorinostat; first compound 0.01 µM) | relative viability (Motesanib + Vorinostat; first compound 0.03162 µM) | relative viability (Motesanib + Vorinostat; first compound 0.1 µM) | relative viability (Motesanib + Vorinostat; first compound 0.3162 µM) | relative viability (Motesanib + Vorinostat; first compound 1 µM) | relative viability ([2]; first compound 0.04 µM) | relative viability ([2]; first compound 0.1265 µM) | relative viability ([2]; first compound 0.4 µM) | relative viability ([2]; first compound 1.265 µM)
LXF-289 | 0.708 | 0.841 | 0.857 | 0.912 | 0.886 | 0.987 | 0.917 | 0.941 | 0.991 | 0.766 | 0.719 | 0.78 | 0.932 | 0.751 | 1.02 | 0.947 | 0.936 | 1.02
NCI-H23 | 0.602 | 0.593 | 0.609 | 0.675 | 0.614 | 0.658 | 0.587 | 0.444 | 0.664 | 0.597 | 0.549 | 0.516 | 0.741 | 0.51 | 0.612 | 0.5 | 0.484 | 0.613
NCI-H322M | 0.471 | 0.584 | 0.506 | 0.584 | 0.566 | 1.27 | 1 | 1.07 | 1.19 | 0.962 | 0.88 | 0.871 | 1.03 | 0.849 | 0.968 | 0.83 | 0.865 | 0.96
NCI-H441 | 0.557 | 0.619 | 0.608 | 0.577 | 0.547 | 0.363 | 0.413 | 0.116 | 0.505 | 0.527 | 0.697 | 0.7 | 0.764 | 0.792 | 0.435 | 0.417 | 0.476 | 0.543
NCI-H460 | 0.616 | 0.633 | 0.619 | 0.635 | 0.632 | 1.08 | 0.893 | 1.01 | 1.23 | 0.635 | 0.696 | 0.716 | 0.726 | 0.666 | 0.834 | 0.667 | 0.708 | 0.82
NCI-H520 | 0.29 | 0.226 | 0.231 | 0.24 | 0.253 | 1.16 | 0.988 | 1.04 | 1.11 | 0.664 | 0.759 | 0.687 | 0.734 | 0.686 | 0.951 | 0.867 | 0.915 | 1.07
NCI-H596 | 0.913 | 0.772 | 0.732 | 0.6 | 0.75 | 1.01 | 0.809 | 0.921 | 1.09 | 0.586 | 0.546 | 0.56 | 0.511 | 0.711 | 0.954 | 1.02 | 0.939 | 1.18
NCI-H647 | 0.848 | 0.528 | 0.578 | 0.717 | 0.557 | 1.1 | 0.989 | 0.894 | 1.14 | 0.506 | 0.575 | 0.567 | 0.769 | 0.894 | 1.17 | 1.2 | 0.952 | 1.26
NCI-H727 | 0.539 | 0.767 | 0.833 | 0.555 | 0.425 | 0.175 | 0.185 | 0.106 | 0.14 | 1.12 | 1.29 | 1.39 | 1.26 | 1.29 | 0.349 | 0.135 | 0.232 | 0.283
NCI-H838 | 0.448 | 0.313 | 0.394 | 0.438 | 0.415 | 1.21 | 1.01 | 0.948 | 1.1 | 0.735 | 0.75 | 0.801 | 0.779 | 0.737 | 1.09 | 0.848 | 0.753 | 0.874
NCI-H1355 | 0.411 | 0.424 | 0.39 | 0.414 | 0.431 | 0.776 | 0.924 | 0.787 | 0.86 | 0.635 | 0.659 | 0.707 | 0.702 | 0.593 | 0.815 | 0.882 | 0.727 | 0.887
NCI-H1395 | 0.576 | 0.579 | 0.658 | 0.636 | 0.564 | 1.33 | 0.983 | 1.03 | 1.24 | 0.56 | 0.526 | 0.707 | 0.794 | 0.677 | 1.3 | 0.737 | 1.01 | 0.947
NCI-H1437 | 0.872 | 0.899 | 0.903 | 0.803 | 0.856 | 1.04 | 0.828 | 0.739 | 0.919 | 0.927 | 0.73 | 0.759 | 0.799 | 0.852 | 0.935 | 0.833 | 0.671 | 0.843
NCI-H1651 | 0.848 | 0.663 | 0.628 | 0.652 | 0.615 | 0.963 | 1.12 | 0.861 | 1.16 | 0.475 | 0.605 | 0.575 | 0.583 | 0.581 | 1.04 | 0.898 | 0.984 | 1.12
NCI-H1666 | 0.784 | 0.816 | 0.894 | 0.937 | 0.859 | 0.823 | 0.777 | 0.578 | 0.581 | 0.926 | 0.978 | 1.06 | 1 | 1.02 | 0.89 | 0.87 | 0.753 | 0.831
NCI-H1734 | 0.659 | 0.602 | – | 0.58 | 0.527 | 0.834 | 0.593 | 0.661 | 0.731 | 0.741 | 0.821 | 0.813 | 0.805 | 0.865 | 0.771 | 0.722 | 0.794 | 0.903
NCI-H1755 | 0.661 | 0.682 | 0.746 | 0.826 | 0.652 | 1 | 0.864 | 0.913 | 0.971 | 0.672 | 0.759 | 0.808 | 0.945 | 0.747 | 1.01 | 0.954 | 0.895 | 1.04
